In patent US8686044B2, “Amide derivative, pest control agent containing the amide derivative, and use of the amide derivative” (Mitsui Chemicals Agro, Inc., priority 2008, dated 2014):

Columns and labels:
Type in all cases: in vivo
Plutella xylostella = assay: Pesticidal test against Plutella xylostella (cabbage leaf dip); conditions: foliar, 144 h, 2-stage larvae, examined after 6 days, 25° C., read-out: pesticidal rate; for pest or weed control at 1 ppm: concentration 1 ppm; for pest or weed control at 10 ppm: concentration 10 ppm
Summary of the method: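 Second-stage larvae (5 per group, two replicates) were released onto air-dried cabbage leaf discs that had been immersed for 30 seconds in compound solution at a set concentration. Mortality was scored after 6 days at 25° C.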

Spodoptera litura = assay: Pesticidal test against Spodoptera litura (cabbage leaf dip); conditions: foliar, 144 h, 2-stage larvae, examined after 6 days, 25° C., read-out: pesticidal rate; for pest or weed control at 10 ppm: concentration 10 ppm; for pest or weed control at 1 ppm: concentration 1 ppm
Summary of the method: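 Cabbage leaf pieces dipped 30 seconds in compound solution at a predetermined concentration and air-dried, then offered to second-stage larvae, five per group in two replicates. Held at 25° C. Living and dead larvae counted after 6 days.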

Musca domestica = assay: Pesticidal test against Musca domestica (petri dish dry film); conditions: 24 h, concentration 100 ppm, female adults, examined after 1 day, 25° C., read-out: pesticidal rate
Protocol: Pesticidal Test against Musca domestica
1 ml of an acetone solution in which a test compound had been prepared at a predetermined concentration was added dropwise to a petri dish having a diameter of 9 cm, and air-dried, and then the female adults of Musca domestica were released and the petri dish was capped. They were left to stand in a thermostatic chamber at 25° C., and the numbers of the living pests and the dead pests were examined after 1 day. The test was carried out with five larvae per group in two replicates.

Laodelphax striatellus = assay: Pesticidal test against Laodelphax striatellus (rice seedling spray); conditions: 144 h, concentration 100 ppm, 3-stage larvae, examined after 6 days, 25° C., read-out: pesticidal rate
Summary of the method: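 Rice seedlings sprayed with 2.5 ml acetone solution of compound at a predetermined concentration, air-dried, then infested with third-stage Laodelphax striatellus larvae in capped water-containing tubes at 25 °C. Living and dead insects counted after 6 days; ten larvae per group, two replicates.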

N#Cc1ccc(C(=O)Nc2c(Br)cc(C(F)(C(F)(F)F)C(F)(F)F)cc2C(F)(F)F)c(F)c1NC(=O)c1ccc(Cl)nc1 [1-1968, N-(3-(2-bromo-4-(perfluoropropan-2-yl)-6-(trifluoromethyl)phenylcarbamoyl)-6-cyano-2-fluorophenyl)-6-chloronicotinamide]
≥ 70%: pest or weed control at 1 ppm (Plutella xylostella) | pest or weed control at 10 ppm (Spodoptera litura) | pest or weed control at 100 ppm (Musca domestica)

O=C(Nc1c(Br)cc(C(F)(C(F)(F)F)C(F)(F)F)cc1C(F)(F)F)c1cccc(NC(=O)c2ccccc2Cl)c1 [6-272]
≥ 70%: pest or weed control at 1 ppm (Plutella xylostella) | pest or weed control at 1 ppm (Spodoptera litura) | pest or weed control at 100 ppm (Musca domestica)

O=C(Nc1c(Br)cc(C(F)(C(F)(F)F)C(F)(F)F)cc1C(F)(F)F)c1cccc(NC(=O)c2ccc(F)cc2Cl)c1 [6-293]
≥ 70%: pest or weed control at 1 ppm (Plutella xylostella) | pest or weed control at 1 ppm (Spodoptera litura) | pest or weed control at 100 ppm (Musca domestica)

O=C(Nc1c(I)cc(C(F)(C(F)(F)F)C(F)(F)F)cc1C(F)(F)F)c1cccc(NC(=O)c2ccccc2Cl)c1 [6-428]
≥ 70%: pest or weed control at 1 ppm (Plutella xylostella) | pest or weed control at 1 ppm (Spodoptera litura) | pest or weed control at 100 ppm (Musca domestica)

O=C(Nc1c(I)cc(C(F)(C(F)(F)F)C(F)(F)F)cc1C(F)(F)F)c1cccc(NC(=O)c2cc(F)c(F)cc2Cl)c1 [6-450]
≥ 70%: pest or weed control at 1 ppm (Plutella xylostella) | pest or weed control at 1 ppm (Spodoptera litura) | pest or weed control at 100 ppm (Musca domestica)

O=C(Nc1c(I)cc(C(F)(C(F)(F)F)C(F)(F)F)cc1C(F)(F)F)c1cccc(NC(=O)c2ccc(Cl)cc2Br)c1 [6-452]
≥ 70%: pest or weed control at 10 ppm (Plutella xylostella) | pest or weed control at 1 ppm (Spodoptera litura) | pest or weed control at 100 ppm (Musca domestica)

O=C(Nc1c(I)cc(C(F)(C(F)(F)F)C(F)(F)F)cc1C(F)(F)F)c1cccc(NC(=O)c2ccc(F)cc2Br)c1 [6-453]
≥ 70%: pest or weed control at 1 ppm (Plutella xylostella) | pest or weed control at 1 ppm (Spodoptera litura) | pest or weed control at 100 ppm (Musca domestica)

O=C(Nc1c(I)cc(C(F)(C(F)(F)F)C(F)(F)C(F)(F)F)cc1I)c1cccc(NC(=O)c2c(F)cccc2F)c1F (stereo not shown) [6-1360]
≥ 70%: pest or weed control at 1 ppm (Plutella xylostella) | pest or weed control at 1 ppm (Spodoptera litura) | pest or weed control at 100 ppm (Laodelphax striatellus) | pest or weed control at 100 ppm (Musca domestica)

O=C(Nc1cccc(C(=O)Nc2c(I)cc(C(F)(C(F)(F)F)C(F)(F)C(F)(F)F)cc2I)c1F)c1cccnc1Cl (stereo not shown) [6-1374]
≥ 70%: pest or weed control at 1 ppm (Plutella xylostella) | pest or weed control at 1 ppm (Spodoptera litura) | pest or weed control at 100 ppm (Laodelphax striatellus) | pest or weed control at 100 ppm (Musca domestica)

O=C(Nc1cccc(C(=O)Nc2c(I)cc(C(F)(C(F)(F)F)C(F)(F)F)cc2C(F)(F)F)c1F)c1ccccc1Cl [6-1734]
≥ 70%: pest or weed control at 1 ppm (Plutella xylostella) | pest or weed control at 1 ppm (Spodoptera litura) | pest or weed control at 100 ppm (Laodelphax striatellus) | pest or weed control at 100 ppm (Musca domestica)

O=C(Nc1cccc(C(=O)Nc2c(I)cc(C(F)(C(F)(F)F)C(F)(F)C(F)(F)F)cc2C(F)(F)F)c1F)c1cccc(F)c1 (stereo not shown) [6-1810]
≥ 70%: pest or weed control at 1 ppm (Plutella xylostella) | pest or weed control at 1 ppm (Spodoptera litura) | pest or weed control at 100 ppm (Laodelphax striatellus) | pest or weed control at 100 ppm (Musca domestica)

CN(C(=O)c1ccccc1F)c1cccc(C(=O)Nc2c(Br)cc(C(F)(C(F)(F)F)C(F)(F)C(F)(F)F)cc2Br)c1 (stereo not shown) [7-39]
≥ 70%: pest or weed control at 1 ppm (Plutella xylostella) | pest or weed control at 1 ppm (Spodoptera litura) | pest or weed control at 100 ppm (Musca domestica)

CN(C(=O)c1ccccc1)c1cccc(C(=O)Nc2c(Br)cc(C(F)(C(F)(F)F)C(F)(F)C(F)(F)F)cc2C(F)(F)F)c1 (stereo not shown) [7-346]
≥ 70%: pest or weed control at 1 ppm (Plutella xylostella) | pest or weed control at 1 ppm (Spodoptera litura) | pest or weed control at 100 ppm (Laodelphax striatellus) | pest or weed control at 100 ppm (Musca domestica)

CN(C(=O)c1c(F)cccc1F)c1cccc(C(=O)Nc2c(Br)cc(C(F)(C(F)(F)F)C(F)(F)C(F)(F)F)cc2C(F)(F)F)c1 (stereo not shown) [7-368]
≥ 70%: pest or weed control at 1 ppm (Plutella xylostella) | pest or weed control at 1 ppm (Spodoptera litura) | pest or weed control at 100 ppm (Laodelphax striatellus) | pest or weed control at 100 ppm (Musca domestica)

CN(C(=O)c1ccccc1Cl)c1cccc(C(=O)Nc2c(I)cc(C(F)(C(F)(F)F)C(F)(F)F)cc2C(F)(F)F)c1 [7-428]
≥ 70%: pest or weed control at 1 ppm (Plutella xylostella) | pest or weed control at 1 ppm (Spodoptera litura) | pest or weed control at 100 ppm (Musca domestica)

CN(C(=O)c1ccc(F)cc1Cl)c1cccc(C(=O)Nc2c(I)cc(C(F)(C(F)(F)F)C(F)(F)F)cc2C(F)(F)F)c1 [7-449]
≥ 70%: pest or weed control at 1 ppm (Plutella xylostella) | pest or weed control at 1 ppm (Spodoptera litura) | pest or weed control at 100 ppm (Musca domestica)

CN(C(=O)c1cccc(F)c1)c1cccc(C(=O)Nc2c(I)cc(C(F)(C(F)(F)F)C(F)(F)C(F)(F)F)cc2I)c1F (stereo not shown) [7-1340]
≥ 70%: pest or weed control at 1 ppm (Plutella xylostella) | pest or weed control at 1 ppm (Spodoptera litura) | pest or weed control at 100 ppm (Laodelphax striatellus) | pest or weed control at 100 ppm (Musca domestica)

CN(C(=O)c1c(F)cccc1F)c1cccc(C(=O)Nc2c(I)cc(C(F)(C(F)(F)F)C(F)(F)C(F)(F)F)cc2I)c1F (stereo not shown) [7-1360]
≥ 70%: pest or weed control at 1 ppm (Plutella xylostella) | pest or weed control at 1 ppm (Spodoptera litura) | pest or weed control at 100 ppm (Laodelphax striatellus) | pest or weed control at 100 ppm (Musca domestica)

CN(C(=O)c1ccccc1)c1cccc(C(=O)Nc2c(Cl)cc(C(F)(C(F)(F)F)C(F)(F)F)cc2C(F)(F)F)c1F [7-1417]
≥ 70%: pest or weed control at 1 ppm (Plutella xylostella) | pest or weed control at 1 ppm (Spodoptera litura) | pest or weed control at 100 ppm (Laodelphax striatellus) | pest or weed control at 100 ppm (Musca domestica)

CN(C(=O)c1cccc(C#N)c1)c1cccc(C(=O)Nc2c(I)cc(C(F)(C(F)(F)F)C(F)(F)C(F)(F)F)cc2C(F)(F)F)c1F (stereo not shown) [7-1828]
≥ 70%: pest or weed control at 1 ppm (Plutella xylostella) | pest or weed control at 1 ppm (Spodoptera litura) | pest or weed control at 100 ppm (Laodelphax striatellus) | pest or weed control at 100 ppm (Musca domestica)

CN(C(=O)c1cncnc1)c1cccc(C(=O)Nc2c(I)cc(C(F)(C(F)(F)F)C(F)(F)F)cc2C(F)(F)F)c1 [7-5909]
≥ 70%: pest or weed control at 1 ppm (Plutella xylostella) | pest or weed control at 10 ppm (Spodoptera litura) | pest or weed control at 100 ppm (Laodelphax striatellus)

CN(C(=O)c1cccnc1Cl)c1cccc(C(=O)Nc2c(Br)cc(C(F)(F)C(F)(F)F)cc2C(F)(F)F)c1 [7-5912]
≥ 70%: pest or weed control at 10 ppm (Plutella xylostella) | pest or weed control at 10 ppm (Spodoptera litura) | pest or weed control at 100 ppm (Laodelphax striatellus)

CN(C(=O)c1cccc(NC(=O)c2ccc(C#N)cc2)c1)c1c(Br)cc(C(F)(C(F)(F)F)C(F)(F)F)cc1C(F)(F)F [8-289, N-(2-bromo-4-(perfluoropropan-2-yl)-6-(trifluoromethyl)phenyl)-3-(4-cyanobenzamide)-N-methylbenzamide]
≥ 70%: pest or weed control at 1 ppm (Plutella xylostella) | pest or weed control at 1 ppm (Spodoptera litura) | pest or weed control at 100 ppm (Laodelphax striatellus)

CN(C(=O)c1cccc(NC(=O)c2cccnc2Cl)c1)c1c(Br)cc(C(F)(C(F)(F)F)C(F)(F)F)cc1C(F)(F)F [8-304]
≥ 70%: pest or weed control at 1 ppm (Plutella xylostella) | pest or weed control at 1 ppm (Spodoptera litura) | pest or weed control at 100 ppm (Laodelphax striatellus)

CN(C(=O)c1cccc(NC(=O)c2cccnc2Cl)c1)c1c(C(F)(F)F)cc(C(F)(C(F)(F)F)C(F)(F)F)cc1C(F)(F)F [8-840]
≥ 70%: pest or weed control at 10 ppm (Plutella xylostella) | pest or weed control at 1 ppm (Spodoptera litura) | pest or weed control at 100 ppm (Laodelphax striatellus)

CN(C(=O)c1ccccc1)c1cccc(C(=O)N(C)c2c(Br)cc(C(F)(C(F)(F)F)C(F)(F)F)cc2C(F)(F)F)c1 [9-270]
≥ 70%: pest or weed control at 1 ppm (Plutella xylostella) | pest or weed control at 1 ppm (Spodoptera litura) | pest or weed control at 100 ppm (Laodelphax striatellus)

CN(C(=O)c1cccc(C#N)c1)c1cccc(C(=O)N(C)c2c(Br)cc(C(F)(C(F)(F)F)C(F)(F)F)cc2C(F)(F)F)c1 [9-290]
≥ 70%: pest or weed control at 1 ppm (Plutella xylostella) | pest or weed control at 1 ppm (Spodoptera litura) | pest or weed control at 100 ppm (Laodelphax striatellus)

CN(C(=O)c1ccc(C#N)cc1)c1cccc(C(=O)N(C)c2c(Br)cc(C(F)(C(F)(F)F)C(F)(F)F)cc2C(F)(F)F)c1 [9-291]
≥ 70%: pest or weed control at 1 ppm (Plutella xylostella) | pest or weed control at 1 ppm (Spodoptera litura) | pest or weed control at 100 ppm (Laodelphax striatellus)

CN(C(=O)c1cccnc1Cl)c1cccc(C(=O)N(C)c2c(Br)cc(C(F)(C(F)(F)F)C(F)(F)F)cc2C(F)(F)F)c1 [9-306]
≥ 70%: pest or weed control at 1 ppm (Plutella xylostella) | pest or weed control at 1 ppm (Spodoptera litura) | pest or weed control at 100 ppm (Laodelphax striatellus)

O=C(Nc1cccc(C(=O)Nc2c(Br)cc(C(F)(C(F)(F)F)C(F)(F)F)cc2C(F)(F)F)c1F)OCC(Cl)(Cl)Cl [11-777]
≥ 70%: pest or weed control at 1 ppm (Plutella xylostella) | pest or weed control at 1 ppm (Spodoptera litura) | pest or weed control at 100 ppm (Musca domestica)

O=C(Nc1cccc(C(=O)Nc2c(I)cc(C(F)(C(F)(F)F)C(F)(F)F)cc2C(F)(F)F)c1F)OCC(Cl)(Cl)Cl [11-835]
≥ 70%: pest or weed control at 1 ppm (Plutella xylostella) | pest or weed control at 1 ppm (Spodoptera litura) | pest or weed control at 100 ppm (Musca domestica)

CN(C(=O)OCC(Cl)(Cl)Cl)c1cccc(C(=O)Nc2c(Br)cc(C(F)(C(F)(F)F)C(F)(F)F)cc2C(F)(F)F)c1F [12-777]
≥ 70%: pest or weed control at 1 ppm (Plutella xylostella) | pest or weed control at 1 ppm (Spodoptera litura) | pest or weed control at 100 ppm (Musca domestica)

CN(C(=O)c1ccccc1)c1cccc(C(=O)Nc2c(Br)cc(C(F)(C(F)(F)F)C(F)(F)F)cc2C(F)(F)F)n1 [17-1103, N-(2-bromo-4-(perfluoropropan-2-yl)-6-(trifluoromethyl)phenyl)-6-(N-methylbenzamide)picolinamide]
≥ 70%: pest or weed control at 10 ppm (Plutella xylostella) | pest or weed control at 10 ppm (Spodoptera litura) | pest or weed control at 100 ppm (Musca domestica)

CN(C(=O)c1ccccc1)c1nc(C(=O)Nc2c(Br)cc(C(F)(C(F)(F)F)C(F)(F)F)cc2C(F)(F)F)cs1 [27-627]
≥ 70%: pest or weed control at 10 ppm (Plutella xylostella) | pest or weed control at 1 ppm (Spodoptera litura) | pest or weed control at 100 ppm (Musca domestica)
